# From patent US8962844B2, “1,3,4-oxadiazole and 1,3,4-thiadiazole β-lactamase inhibitors” (priority 2012, dated 2015)
# Where a name gives a salt, the structure may show the parent alone.
# What was measured:
# [1] = tested on: bacterial strains that express the class D cephalosporinase OXA-15; test: Standard BLI potentiation MIC / synergy MIC (sMIC) assays run in the presence of a β-lactam, OXA-15 expressing strains; assay type: cell-based, E. coli; details: BLI in combination with a β-lactam; comparison with Avibactam (comparator compound CCC)
# Method in brief: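 Isogenic E. coli DH10B carrying cloned β-lactamase genes on pBR322-derived plasmid (blaTEM-1 promoter, tetracycline 25 μg/mL) tested by CLSI broth microdilution in CAMHB. Test compound and β-lactam each diluted and combined; MIC reported in presence of β-lactam.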
# [2] = tested on: bacterial strains that express KPC β-lactamases; test: Standard BLI potentiation MIC / synergy MIC (sMIC) assays run in the presence of a β-lactam, KPC expressing strains; assay type: cell-based; details: more active for at least one KPC strain and/or better spectrum of activity than Avibactam; BLI in combination with a β-lactam
# Excerpt: Unless otherwise indicated, the activity of the BLI compounds can be described by the MIC value obtained from a Synergy MIC assay or a BLI potentiation assay (e.g as described herein), both of which are run in the presence of a β-lactam.
# A set of β-lactamase expressing isogenic E. coli strains was constructed by cloning a β-lactamase gene into a customized derivative of pBR322 (GenBank Accession Number J01749) and transforming the engineered plasmids into E. coli. The NdeI restriction site within the plasmid backbone of pBR322 was removed to generate pBR322 ΔNdeI. The pBR322 ΔNdeI vector itself, minus the blaTEM-1 gene, was amplified using two primers: (1) pBR-Pbla 5′-cgcatatgactettectttttcaatattattg-3, SEQ ID 1, a primer with an engineered NdeI restriction site at the 3′ end of the blaTEM-1 promoter and (2) pBR-vec-1 5′-[…]-3′, SEQ ID 2, a primer with an engineered BamHI restriction site at the 3′ end of the blaTEM-1 open reading frame. The chloramphenicol resistance gene, cat, was generated by PCR amplification from pKD3 (GenBank Accession Number AY048742) using primers with an engineered NdeI restriction site at the 5′ end (Pbla-cat 5′-[…]-3′, SEQ ID 3) and an engineered BamHI restriction site at the 3′ end (Vec-1-cat 5′-[…]-3′, SEQ ID 4) of the resistance gene. The two PCR products, pBR322 ΔNdeI and cat were ligated together generating pBR-CBST (pBR322 ΔNdeI ΔTEM-1::cat Seq. ID 5) which retains both the pBR322 tetracycline resistance cassette, tetA, and the plasmid origin of replication but the blaTEM-1 gene was replaced by the cat gene.
# Using this engineering strategy a number of plasmids producing β-lactamase genes from different classes (see below) were generated using synthetic genes with an engineered NdeI restriction site at the 5′ end and BamHI restriction site at the 3′ end of each gene (GenScript). Both the synthetic β-lactamase genes and cat gene were ligated into the NdeI/BamHI sites of the pBR322 ΔNdeI PCR product and transformed into electrocompetent E. coli ElectroMax DH10B (Invitrogen/Life Technologies). E. coli DH10B harboring the recombinant plasmids were selected on LB agar (supplemented with 25 μg/mL tetracycline) and single isolated colonies were then inoculated into 5 mL LB media (supplemented with 25 μg/mL tetracycline), and incubated at 37° C. with aeration (250 rpm) for 18 hrs. The cultures were frozen back at −80° C. in 20% glycerol. The DNA sequence of the cloned β-lactamase genes was confirmed. The β-lactamase gene expression in the recombinant E. coli strains was driven by the blaTEM-1 promoter in the pBR-CBST plasmid and was characterized by MIC profiling of the E. coli recombinant strains against comparator β-lactam/BLI combinations in broth microdilution assay.
# The experimental protocol was performed according to Clinical and Laboratory Standards Institute (CLSI) guidelines with modifications as described below (CLSI guidelines can be derived from the CLSI document M07-A9 published in January 2012: “Methods for Dilution Antimicrobial Susceptibility Tests for Bacteria That Grow Aerobically; Approved Standard-Ninth Edition”).
# To prepare for MIC testing, frozen glycerol stocks of clinical isolates (Klebsiella pneumoniae, Eschericia coli, Enterobacter spp, Citrobacter spp, or Pseudomonas aeruginosa) were used to streak for isolated colonies on rich, non-selective, tryptic soy agar containing 5% sheep's blood (TSAB). Frozen glycerol stocks of laboratory engineered, isogenic E. coli strains, which contain cloned β-lactamase expressing plasmids were used to streak for isolated colonies on rich, selective LB agar supplemented with 25 μg/mL tetracycline to maintain the plasmid. All strains were incubated at 37° C. for 18-24 hrs.
# On the day of testing, primary cultures were started by scraping off 5-10 colonies from the TSAB plates containing clinical strains or the tetracycline supplemented LB plates containing engineered strains. […]
Compound,"activity against bacterial strains that express the class D cephalosporinase OXA-15, compared with Avibactam [1]","activity and/or spectrum of activity against bacterial strains that express KPC β-lactamases, compared with Avibactam [2]"
"O=C1N2C[C@@H](CC[C@H]2c2nnc(CCC3CNC3)o2)N1OS(=O)(=O)O [Compound 742, (2S,5R)-2-(5-(2-(azetidin-3-yl)ethyl)-1,3,4-oxadiazol-2-yl)-7-oxo-1,6-diazabicyclo[3.2.1]octan-6-yl hydrogen sulfate]",more active than Avibactam,more active than Avibactam
"O=C1N2C[C@@H](CC[C@H]2c2nnc(CCCC3CNC3)o2)N1OS(=O)(=O)O [Compound 743, (2S,5R)-2-(5-(3-(azetidin-3-yl)propyl)-1,3,4-oxadiazol-2-yl)-7-oxo-1,6-diazabicyclo[3.2.1]octan-6-yl hydrogen sulfate]",more active than Avibactam,more active than Avibactam
"O=C1N2C[C@@H](CC[C@H]2c2nnc(COC3CNC3)o2)N1OS(=O)(=O)O [Compound 744, (2S,5R)-2-(5-((azetidin-3-yloxy)methyl)-1,3,4-oxadiazol-2-yl)-7-oxo-1,6-diazabicyclo[3.2.1]octan-6-yl hydrogen sulfate]",more active than Avibactam,more active than Avibactam
"O=C1N2C[C@@H](CC[C@H]2c2nnc(CCNC3CNC3)o2)N1OS(=O)(=O)O [Compound 745, (2S,5R)-2-(5-(2-(azetidin-3-ylamino)ethyl)-1,3,4-oxadiazol-2-yl)-7-oxo-1,6-diazabicyclo[3.2.1]octan-6-yl hydrogen sulfate]",more active than Avibactam,more active than Avibactam
"N=C(N)N1CC(NCc2nnc([C@@H]3CC[C@@H]4CN3C(=O)N4OS(=O)(=O)O)o2)C1 [Compound 746, (2S,5R)-2-(5-(((1-carbamimidoylazetidin-3-yl)amino)methyl)-1,3,4-oxadiazol-2-yl)-7-oxo-1,6-diazabicyclo[3.2.1]octan-6-yl hydrogen sulfate]",more active than Avibactam,more active than Avibactam
"N=C(N)N[C@H]1C[C@@H](c2nnc([C@@H]3CC[C@@H]4CN3C(=O)N4OS(=O)(=O)O)o2)C1 [Compound 749, (2S,5R)-2-(5-((1s,3R)-3-guanidinocyclobutyl)-1,3,4-oxadiazol-2-yl)-7-oxo-1,6-diazabicyclo[3.2.1]octan-6-yl hydrogen sulfate]",more active than Avibactam,more active than Avibactam
"O=C1N2C[C@@H](CC[C@H]2c2nnc(C3CC4(CNC4)C3)o2)N1OS(=O)(=O)O [Compound 750, (2S,5R)-2-(5-(2-azaspiro[3,3]heptan-6-yl)-1,3,4-oxadiazol-2-yl)-7-oxo-1,6-diazabicyclo[3.2.1]octan-6-yl hydrogen sulfate]",more active than Avibactam,more active than Avibactam
"N[C@H]1C[C@H](Cc2nnc([C@@H]3CC[C@@H]4CN3C(=O)N4OS(=O)(=O)O)o2)C1 [Compound 751, (2S,5R)-2-(5-(((1r,3S)-3-aminocyclobutyl)methyl)-1,3,4-oxadiazol-2-yl)-7-oxo-1,6-diazabicyclo[3.2.1]octan-6-yl hydrogen sulfate]",more active than Avibactam,more active than Avibactam
"N=C(N)NC1CC(Cc2nnc([C@@H]3CC[C@@H]4CN3C(=O)N4OS(=O)(=O)O)o2)C1 (stereo partly drawn) [Compound 752, (2S,5R)-2-(5-((3-guanidinocyclobutyl)methyl)-1,3,4-oxadiazol-2-yl)-7-oxo-1,6-diazabicyclo[3.2.1]octan-6-yl hydrogen sulfate]",more active than Avibactam,more active than Avibactam
"N[C@H]1C[C@H](CCc2nnc([C@@H]3CC[C@@H]4CN3C(=O)N4OS(=O)(=O)O)o2)C1 [Compound 753, (2S,5R)-2-(5-(2-((1r,3R)-3-aminocyclobutyl)ethyl)-1,3,4-oxadiazol-2-yl)-7-oxo-1,6-diazabicyclo[3.2.1]octan-6-yl hydrogen sulfate]",more active than Avibactam,more active than Avibactam
"N[C@H]1C[C@@H](CCc2nnc([C@@H]3CC[C@@H]4CN3C(=O)N4OS(=O)(=O)O)o2)C1 [Compound 754, (2S,5R)-2-(5-(2-((1s,3S)-3-aminocyclobutyl)ethyl)-1,3,4-oxadiazol-2-yl)-7-oxo-1,6-diazabicyclo[3.2.1]octan-6-yl hydrogen sulfate]",more active than Avibactam,more active than Avibactam
"NC1CC(NCc2nnc([C@@H]3CC[C@@H]4CN3C(=O)N4OS(=O)(=O)O)o2)C1 (stereo partly drawn) [Compound 755, (2S,5R)-2-(5-(((3-aminocyclobutyl)amino)methyl)-1,3,4-oxadiazol-2-yl)-7-oxo-1,6-diazabicyclo[3.2.1]octan-6-yl hydrogen sulfate]",more active than Avibactam,more active than Avibactam
"N[C@H]1C[C@@H](NCc2nnc([C@@H]3CC[C@@H]4CN3C(=O)N4OS(=O)(=O)O)o2)C1 [Compound 756, (2S,5R)-2-(5-((((1s,3R)-3-aminocyclobutyl)amino)methyl)-1,3,4-oxadiazol-2-yl)-7-oxo-1,6-diazabicyclo[3.2.1]octan-6-yl hydrogen sulfate]",more active than Avibactam,more active than Avibactam
"O=C1N2C[C@@H](CC[C@H]2c2nnc([C@H]3CCNC3)o2)N1OS(=O)(=O)O [Compound 758, (2S,5R)-7-oxo-2-(5-((S)-pyrrolidin-3-yl)-1,3,4-oxadiazol-2-yl)-1,6-diazabicyclo[3.2.1]octan-6-yl hydrogen sulfate]",more active than Avibactam,more active than Avibactam
